Here are results for 16 compounds from patent US8546608B2, “Proteasome inhibitors and methods of using the same” (Cephalon, Inc., priority 2003, dated 2013).

For test [1], the target named is T1, proteasome in Molt-4 cells (human leukemia) (Homo sapiens, UniProt P20618+P28074).
T1 sequence (P28074 60-263): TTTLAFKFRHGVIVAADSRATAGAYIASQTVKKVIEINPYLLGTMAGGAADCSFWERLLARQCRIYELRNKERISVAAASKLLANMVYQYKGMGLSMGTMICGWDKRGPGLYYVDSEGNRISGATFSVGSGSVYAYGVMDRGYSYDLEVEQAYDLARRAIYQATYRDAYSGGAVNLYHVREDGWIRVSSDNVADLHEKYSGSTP
T1 sequence (P20618 29-241): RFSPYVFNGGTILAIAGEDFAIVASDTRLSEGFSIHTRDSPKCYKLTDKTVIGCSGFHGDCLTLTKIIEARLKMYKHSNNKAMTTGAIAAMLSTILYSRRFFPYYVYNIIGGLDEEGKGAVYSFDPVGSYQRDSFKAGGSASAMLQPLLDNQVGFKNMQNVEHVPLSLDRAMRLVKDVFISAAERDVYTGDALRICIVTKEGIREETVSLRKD
It is filed as cell-based. The note with it: assay of Example E, inhibition of MOLT4; read-out: MOLT4 (EC50). The gist of the method: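 Intact Molt-4 cells (6×10^6 cells/mL) in HEPES-buffered saline were preincubated with inhibitor 15 min at 37 °C, then given cell-permeable MeOSuc-FLF-AFC at 25 μM final.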

Test [2] concerns the target T2, 20S Human Erythrocyte Proteasome (HEP) (Homo sapiens, UniProt P20618+P28074).
T2 construct: 20S Human Erythrocyte Proteasome (HEP), purchased from Immatics Biotechnologies Inc; purchased Immatics Biotechnologies Inc., Tübingen, Germany; host or cells: human erythrocytes (natural source)
The experiment in a line: Chymotrypsin-like activity of 20S Human Erythrocyte Proteasome (HEP), IC50 determination. It is filed as biochemical. The note with it: assay of Example C, inhibition of HEP. In short, it runs like this:
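20S proteasome at 0.2 μg/mL (about 0.6 nM catalytic sites) in 20 mM Tris with 0.04% SDS, preincubated 15 min at 37° C with inhibitor before Suc-LLVY-AMC (100 μM final). AMC fluorescence read in the linear range; triplicates, IC50 from concentration series.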

The structures appear in SMILES notation. pEC50, pIC50: −log10 of the molar value.

The term pEC50 denotes the negative decadic logarithm of the EC50, by convention in mol/L. Usually pIC50 stands for the IC50 on a negative log10 scale, so that one unit is a factor of ten. Read a low pIC50 as a high IC50. As for `CC(C)C[C@H](NC(=O)[C@H](CCCNC(=N)N[N+](=O)[O-])NC(=O)CC12CC3CC(CC(C3)C1)C2)B1O[C@@H]2C[C@@H]3C[C@@H](C3(C)C)[C@]2(C)O1` [D.3.58, 2-Adamantan-1-ylacetamide,N-[(1S)-1-[[[(1R)-1-[(3aS,4S,6S,7aR)-hexahydro-3a,5,5-trimethyl-4,6-methano-1,3,2-benzodioxaborol-2-yl]-3-methylbutyl]amino]carbonyl]-4-[[imino(nitroamino)methyl]amino]butyl]], the pEC50 in test [1] was more than 6.70. Also, the negative logarithm of the IC50 (pIC50) in test [2] was more than 8.00.
On the same counts, the results for `CCCCCCCCCC(=O)N[C@@H](CNC(=O)Nc1ccccc1)C(=O)N[C@@H](CC(C)C)B(O)O` [E.5.21, Boronic acid, [(1R)-1-[[(2S)-3-(3-phenylureido)-2-(decanoylamino)-1-oxopropyl]amino]-3-methylbutyl]] are more than 6.70 and more than 8.00.
On the same counts, the results for `CCCCCCCCCCCNC(=O)N[C@H](C(=O)N[C@@H](CC(C)C)B(O)O)[C@@H](C)O` [E.1.24, Boronic acid, [(1R)-1-[[(2S,3R)-3-hydroxy-2-[(undecylaminocarbonyl)amino]-1-oxobutyl]amino]-3-methylbutyl]] are more than 6.70 and more than 8.00.
The matching figures for `CCCCCC/C=C/C(=O)N[C@@H](CCCNC(=N)N[N+](=O)[O-])C(=O)N[C@@H](CC(C)C)B(O)O` [E.2.19, Boronic acid, [(1R)-1-[[(2S)-5-[[imino(nitroamino)methyl]amino]-2-[(non-2-enoyl)amino]-1-oxopentyl]amino]-3-methylbutyl]]: 5.00 to 5.70 and more than 8.00.
Take `CCCCCCCCCC(=O)N[C@H](C(=O)N[C@@H](CC(C)C)B1O[C@@H]2C[C@@H]3C[C@@H](C3(C)C)[C@]2(C)O1)[C@@H](C)O` [D.8, Decanamide, N-[(1S,2R)-1-[[[(1R)-1-[(3aS,4S,6S,7aR)-hexahydro-3a,5,5-trimethyl-4,6-methano-1,3,2-benzodioxaborol-2-yl]-3-methylbutyl]amino]carbonyl]-2-hydroxypropyl]-]: the negative-log EC50 (pEC50) in test [1] is more than 6.70. In test [2], this compound gave a negative logarithm of the IC50 (pIC50) of more than 8.00.
The matching figures for `CC(C)C[C@H](NC(=O)[C@H](CCCNC(=N)N[N+](=O)[O-])NC(=O)CCCC1CCN(C)CC1)B1O[C@@H]2C[C@@H]3C[C@@H](C3(C)C)[C@]2(C)O1` [D.1.10, 4-(1-Methyl-piperidin-4-yl)-butanamide,N-[(1S)-1-[[[(1R)-1-[(3aS,4S,6S,7aR)-hexahydro-3a,5,5-trimethyl-4,6-methano-1,3,2-benzodioxaborol-2-yl]-3-methylbutyl]amino]carbonyl]-4-[[imino(nitroamino)methyl]amino]butyl]]: 5.70 to 6.70 and more than 7.00.
The matching figures for `CC(C)C[C@H](NC(=O)[C@H](CCCNC(=N)N[N+](=O)[O-])NC(=O)CCCOc1ccccc1)B1O[C@@H]2C[C@@H]3C[C@@H](C3(C)C)[C@]2(C)O1` [D.3.104]: 5.70 to 6.70 and more than 8.00.
On the same counts, the results for `CC(C)C[C@H](NC(=O)[C@H](CCCNC(=N)N[N+](=O)[O-])NC(=O)CCCOc1ccccc1)B(O)O` [E.2.42, Boronic acid, [(1R)-1-[[(2S)-5-[[imino(nitroamino)methyl]amino]-2-[(4-phenoxybutanoyl)amino]-1-oxopentyl]amino]-3-methylbutyl]] are less than 5.00 and more than 8.00.
Consider `CCCCCCCCCCCCC(=O)N[C@@H](CCCNC(=N)N[N+](=O)[O-])C(=O)N[C@@H](CC(C)C)B1O[C@@H]2C[C@@H]3C[C@@H](C3(C)C)[C@]2(C)O1` [D.3.119, Tridecanamide,N-[(1S)-1-[[[(1R)-1-[(3aS,4S,6S,7aR)-hexahydro-3a,5,5-trimethyl-4,6-methano-1,3,2-benzodioxaborol-2-yl]-3-methylbutyl]amino]carbonyl]-4-[[imino(nitroamino)methyl]amino]butyl]], for which, in test [1], the pEC50 is more than 6.70. This compound also had a pIC50 in test [2] of more than 8.00.
On the same counts, the results for `CCCCCCCCCC(=O)NCC(=O)N[C@@H](CC(C)C)B1O[C@@H]2C[C@@H]3C[C@@H](C3(C)C)[C@]2(C)O1` [D.2.7, Decanamide,N-[1-[[[(1R)-1-[(3aS,4S,6S,7aR)-hexahydro-3a,5,5-trimethyl-4,6-methano-1,3,2-benzodioxaborol-2-yl]-3-methylbutyl]amino]carbonyl]methyl]] are more than 6.70 and more than 8.00.
On the same counts, the results for `CCS(=O)(=O)NCCCCCC(=O)N[C@@H](CCCNC(=N)N[N+](=O)[O-])C(=O)N[C@@H](CC(C)C)B1O[C@@H]2C[C@@H]3C[C@@H](C3(C)C)[C@]2(C)O1` [D.1.14, 6-(Ethanesulfonylamino)hexanamide,N-[(1S)-1-[[[(1R)-1-[(3aS,4S,6S,7aR)-hexahydro-3a,5,5-trimethyl-4,6-methano-1,3,2-benzodioxaborol-2-yl]-3-methylbutyl]amino]carbonyl]-4-[[imino(nitroamino)methyl]amino]butyl]] are less than 5.00 and more than 7.00.
On the same counts, the results for `CC(C)C[C@H](NC(=O)[C@H](CCCNC(=N)N[N+](=O)[O-])NC(=O)CCCNC(=O)OCC1c2ccccc2-c2ccccc21)B1O[C@@H]2C[C@@H]3C[C@@H](C3(C)C)[C@]2(C)O1` [D.3.122, [[[(9H-fluoren-9-yl)methoxy]carbonyl]amino]butanamide, N-[(1S)-1-[[[(1R)-1-[(3aS,4S,6S,7aR)-hexahydro-3a,5,5-trimethyl-4,6-methano-1,3,2-benzodioxaborol-2-yl]-3-methylbutyl]amino]carbonyl]-4-[[imino(nitroamino)methyl]amino]butyl]] are more than 6.70 and more than 8.00.
In the case of `CC(C)C[C@H](NC(=O)[C@H](CCCNC(=N)N[N+](=O)[O-])NC(=O)/C=C/c1ccc2ccccc2c1)B1O[C@@H]2C[C@@H]3C[C@@H](C3(C)C)[C@]2(C)O1` [D.3.97, (E)-3-(Naphthalen-2-yl)acrylamide,N-[(1S)-1-[[[(1R)-1-[(3aS,4S,6S,7aR)-hexahydro-3a,5,5-trimethyl-4,6-methano-1,3,2-benzodioxaborol-2-yl]-3-methylbutyl]amino]carbonyl]-4-[[imino(nitroamino)methyl]amino]butyl]], the pEC50 in test [1] was more than 6.70. The compound further gave a pIC50 in test [2] of more than 8.00.
The matching figures for `CC(C)C[C@H](NC(=O)[C@@H](NC(=O)c1ccc2ccccc2c1Br)[C@@H](C)O)B(O)O` [E.1.25, Boronic acid, [(1R)-1-[[(2S,3R)-3-hydroxy-2-[(1-Bromo-2-naphthoyl)amino]-1-oxobutyl]amino]-3-methylbutyl]]: more than 6.70 and more than 8.00.
On the same counts, the results for `Cc1ccc(/C=C/C(=O)N[C@@H](CCCNC(=N)N[N+](=O)[O-])C(=O)N[C@@H](CC(C)C)B2O[C@@H]3C[C@@H]4C[C@@H](C4(C)C)[C@]3(C)O2)cc1` [D.3.62, 3-(4-Methylphenyl)acrylamide,N-[(1S)-1-[[[(1R)-1-[(3aS,4S,6S,7aR)-hexahydro-3a,5,5-trimethyl-4,6-methano-1,3,2-benzodioxaborol-2-yl]-3-methylbutyl]amino]carbonyl]-4-[[imino(nitroamino)methyl]amino]butyl]] are more than 6.70 and more than 8.00.
Turning to `CC(C)C[C@H](NC(=O)[C@H](CCCNC(=N)N[N+](=O)[O-])NC(=O)Cc1ccccc1)B(O)O` [E.2.36, Boronic acid, [(1R)-1-[[(2S)-5-[[imino(nitroamino)methyl]amino]-2-[(2-phenylacetyl)amino]-1-oxopentyl]amino]-3-methylbutyl]], the pEC50 in test [1] was less than 5.00. The same compound gave a pIC50 in test [2] of more than 8.00.
